Test system: Genes belonging to other category
Assay: DNA chip mRNA expression in yeast, genes belonging to other category (Table 9)
Type: cell-based, Saccharomyces cerevisiae S288C
Method: Yeast (Saccharomyces cerevisiae S288C (α SUC2mal mel gap2 CUP1)) were incubated at 25° C. on YPD medium (yeast extract 1%, polypepton 2%, glucose 2%). One of toxic chemical substances was added to the cells at logarithmic growth phase, and the cells were further incubated for two hours. Cells were cultured without any chemical substance in the same condition, and were used as control. Concentrations of the chemical substances were defined to inhibit the growth of the yeast but not lead to death.
After completion of the incubation, the culture was centrifuged to collect the cells. To the cells, sodium acetate buffer (50 mM sodium acetate, 10 mM EDTA, 1% SDS) was added, and the mixture was shaken at 65° C. for five minutes, followed by returning to room temperature, and obtaining the supernatant, of which the procedures were repeated two times. To the supernatant, ½ amount of a solution of phenol/chloroform was added, and the mixture was centrifuged to give a supernatant, which was added with an equal amount of chloroform, and the mixture was centrifuged to give a supernatant. To the supernatant, an equal amount of isopropanol containing 0.3 M sodium acetate was added, and the mixture was allowed to stand at room temperature for 30 minutes, after which the mixture was centrifuged to give a sediment of the whole RNAs. Seventy % ethanol was added to the sediment, and the mixture was again centrifuged to give a sediment, which was then dried and dissolved in water. mRNA was isolated from the whole RNAs as followings. In view of the fact that a poly A chain is attached to the 3′ terminus of mRNA, a polynucleotide having a poly T structure which was immobilized on the surface of latex beads was used to trap the mRNA, and then the mRNA was washed and eluted with spine column (Oligotex-dT30<Super>mRNA Purification Kit, Takara). Reverse transcription of the mRNA was conducted with a reverse transcriptase (Super Script II Reverse Transcriptase; catalogue No. 18064-014, GibcoBRL) using fluorescence-labeled nucleotides to give cDNAs that were introduced with Cy3-dUTP or Cy5-dUTP during the reverse transcription.
The labeled cDNAs were dissolved in TE buffer (10mM Tris-HCl/1 mM EDTA, pH8.0), and the solution was dropped on the DNA chip containing the whole genes of yeast (DNA Chip Research Inc. Japan) so that the cDNAs were hybridized on the DNA chip at 65° C. for over 12 hours. The fluoresces intensity of the DNA chip was read with a scanner, and the ratio relative to the fluorescence intensity resulting from the absence of chemical substance was estimated as the following, which is shown in Tables 1 to 9: […]

Compound: [Cl][Cd][Cl] [(2), CdCl2]
- The level of expressed mRNA in the presence of chemical substance/The level of expressed mRNA in the absence of chemical substance (yeast gene YKL008C): 0.6
- The level of expressed mRNA in the presence of chemical substance/The level of expressed mRNA in the absence of chemical substance (yeast gene YKL013C): 0.9
- The level of expressed mRNA in the presence of chemical substance/The level of expressed mRNA in the absence of chemical substance (yeast gene YKL039W): 1.1
- The level of expressed mRNA in the presence of chemical substance/The level of expressed mRNA in the absence of chemical substance (yeast gene YKL096W): 0.6
- The level of expressed mRNA in the presence of chemical substance/The level of expressed mRNA in the absence of chemical substance (yeast gene YKL165C): 2.0
- The level of expressed mRNA in the presence of chemical substance/The level of expressed mRNA in the absence of chemical substance (yeast gene YKL193C): 0.8
- The level of expressed mRNA in the presence of chemical substance/The level of expressed mRNA in the absence of chemical substance (yeast gene YLR120C): 1.9
- The level of expressed mRNA in the presence of chemical substance/The level of expressed mRNA in the absence of chemical substance (yeast gene YLR136C): 9.0
- The level of expressed mRNA in the presence of chemical substance/The level of expressed mRNA in the absence of chemical substance (yeast gene YLR178C): 6.9
- The level of expressed mRNA in the presence of chemical substance/The level of expressed mRNA in the absence of chemical substance (yeast gene YLR250W): 1.0
- The level of expressed mRNA in the presence of chemical substance/The level of expressed mRNA in the absence of chemical substance (yeast gene YLR327C): 3.3
- The level of expressed mRNA in the presence of chemical substance/The level of expressed mRNA in the absence of chemical substance (yeast gene YLR356W): 2.9
- The level of expressed mRNA in the presence of chemical substance/The level of expressed mRNA in the absence of chemical substance (yeast gene YLR362W): 1.2
- The level of expressed mRNA in the presence of chemical substance/The level of expressed mRNA in the absence of chemical substance (yeast gene YLR391W): 0.7
- The level of expressed mRNA in the presence of chemical substance/The level of expressed mRNA in the absence of chemical substance (yeast gene YLR429W): 1.0
- The level of expressed mRNA in the presence of chemical substance/The level of expressed mRNA in the absence of chemical substance (yeast gene YMR004W): 0.9
- The level of expressed mRNA in the presence of chemical substance/The level of expressed mRNA in the absence of chemical substance (yeast gene YMR094W): 0.5
- The level of expressed mRNA in the presence of chemical substance/The level of expressed mRNA in the absence of chemical substance (yeast gene YMR104C): 14.3
- The level of expressed mRNA in the presence of chemical substance/The level of expressed mRNA in the absence of chemical substance (yeast gene YMR219W): 1.1
- The level of expressed mRNA in the presence of chemical substance/The level of expressed mRNA in the absence of chemical substance (yeast gene YMR226C): 1.8
- The level of expressed mRNA in the presence of chemical substance/The level of expressed mRNA in the absence of chemical substance (yeast gene YMR275C): 0.7
- The level of expressed mRNA in the presence of chemical substance/The level of expressed mRNA in the absence of chemical substance (yeast gene YMR276W): 1.4
- The level of expressed mRNA in the presence of chemical substance/The level of expressed mRNA in the absence of chemical substance (yeast gene YMR314W): 1.2
- The level of expressed mRNA in the presence of chemical substance/The level of expressed mRNA in the absence of chemical substance (yeast gene YNL006W): 2.1
- The level of expressed mRNA in the presence of chemical substance/The level of expressed mRNA in the absence of chemical substance (yeast gene YNL007C): 2.4
- The level of expressed mRNA in the presence of chemical substance/The level of expressed mRNA in the absence of chemical substance (yeast gene YNL093W): 6.4
- The level of expressed mRNA in the presence of chemical substance/The level of expressed mRNA in the absence of chemical substance (yeast gene YNL333W): 1.4
- The level of expressed mRNA in the presence of chemical substance/The level of expressed mRNA in the absence of chemical substance (yeast gene YNR010W): 1.2
- The level of expressed mRNA in the presence of chemical substance/The level of expressed mRNA in the absence of chemical substance (yeast gene YNR069C): 1.3
- The level of expressed mRNA in the presence of chemical substance/The level of expressed mRNA in the absence of chemical substance (yeast gene YOL013C): 1.0
- The level of expressed mRNA in the presence of chemical substance/The level of expressed mRNA in the absence of chemical substance (yeast gene YOL164W): 4.4
- The level of expressed mRNA in the presence of chemical substance/The level of expressed mRNA in the absence of chemical substance (yeast gene YOR036W): 0.9
- The level of expressed mRNA in the presence of chemical substance/The level of expressed mRNA in the absence of chemical substance (yeast gene YOR117W): 1.3
- The level of expressed mRNA in the presence of chemical substance/The level of expressed mRNA in the absence of chemical substance (yeast gene YOR124C): 1.1
- The level of expressed mRNA in the presence of chemical substance/The level of expressed mRNA in the absence of chemical substance (yeast gene YOR132W): 1.6
- The level of expressed mRNA in the presence of chemical substance/The level of expressed mRNA in the absence of chemical substance (yeast gene YOR157C): 1.3
- The level of expressed mRNA in the presence of chemical substance/The level of expressed mRNA in the absence of chemical substance (yeast gene YOR181W): 0.9
- The level of expressed mRNA in the presence of chemical substance/The level of expressed mRNA in the absence of chemical substance (yeast gene YOR185C): 1.3
- The level of expressed mRNA in the presence of chemical substance/The level of expressed mRNA in the absence of chemical substance (yeast gene YOR198C): 0.7
- The level of expressed mRNA in the presence of chemical substance/The level of expressed mRNA in the absence of chemical substance (yeast gene YOR259C): 1.1
- The level of expressed mRNA in the presence of chemical substance/The level of expressed mRNA in the absence of chemical substance (yeast gene YOR261C): 1.4
- The level of expressed mRNA in the presence of chemical substance/The level of expressed mRNA in the absence of chemical substance (yeast gene YOR288C): 1.3
- The level of expressed mRNA in the presence of chemical substance/The level of expressed mRNA in the absence of chemical substance (yeast gene YOR355W): 0.6
- The level of expressed mRNA in the presence of chemical substance/The level of expressed mRNA in the absence of chemical substance (yeast gene YOR383C): 4.3
- The level of expressed mRNA in the presence of chemical substance/The level of expressed mRNA in the absence of chemical substance (yeast gene YPL089C): 1.0
- The level of expressed mRNA in the presence of chemical substance/The level of expressed mRNA in the absence of chemical substance (yeast gene YPL109C): 2.5
- The level of expressed mRNA in the presence of chemical substance/The level of expressed mRNA in the absence of chemical substance (yeast gene YPL149W): 1.5
- The level of expressed mRNA in the presence of chemical substance/The level of expressed mRNA in the absence of chemical substance (yeast gene YPL154C): 3.3
- The level of expressed mRNA in the presence of chemical substance/The level of expressed mRNA in the absence of chemical substance (yeast gene YPR103W): 1.1
- The level of expressed mRNA in the presence of chemical substance/The level of expressed mRNA in the absence of chemical substance (yeast gene YPR108W): 1.0
